# Results from patent US9497963B2, “Methods and compositions for control of gypsy moth, Lymantria dispar” (Simon Fraser University, priority 2008, dated 2016).
# Legend:
# Parameters in all cases: species or system Lymantria dispar
# male gypsy moth antenna = assay: Coupled gas chromatographic-electroantennographic detection (GC-EAD); conditions: EAD peak size and shape (sharp/broad)
# Summary of the method: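 GC column effluent split between flame ionization detector and an excised male moth antenna held between saline-filled glass capillary electrodes, tip removed, in a warm air stream. Antennal potentials assigned to compounds by matching retention times with FID peaks.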
# [1] = tested on: response of L. dispar antennae to (+)-disparlure; assay: Competitive electroantennogram (EAG) screen, inhibition of response to (+)-disparlure (Example 4); conditions: Lymantria dispar, means ± S.E.; for inhibition at 0.001 mg: dose 1 μg on cartridge; for inhibition at 0.01 mg: dose 10 μg on cartridge; for inhibition at 0.1 mg: dose 100 μg on cartridge
# Description: In this assay, libraries and individual compounds are tested for their ability to inhibit the antennal response to the sex attractant pheromone of the gypsy moth, (7R,8S) 2-methyl-7,8-epoxyoctadecane, also known as (+)-disparlure. The controls consisted of a puff of clean air (negative) or of air passed over a cartridge impregnated with (+)-disparlure (100 ng) (positive). The treatments consisted of 100 ng of (+)-disparlure in combination with a compound or library at 1, 10 or 100 μg, on a cartridge over which the air puff was passed. The small arrows above the trace denote the times where the air was puffed over the antenna.
# For some compounds, such as the para Compounds 2c{n}, 2c{n,n} and libraries 3c{n,1-5}, EAG competitive assays were performed to investigate whether the diethers inhibit the response of L. dispar antennae to the main component of the sex attractant pheromone cis-(7R,8S)-epoxy-2-methyloctadecane [(+)-disparlure] (FIG. 4). For EAGs a male moth antenna was mounted and placed in front of a stimulus-delivery glass tubing (160×5 mm ID) with a side orifice (2 mm diam) near (2 cm) the distal opening. The tubing was connected to one port of an apparatus (Stimulus Controller CS-05, Syntech Research and Equipment, NL-1200BM Hilversum, The Netherlands) that generated a constant stream of clean air (300 ml/min). The second port of the apparatus was connected to a Pasteur pipette inserted through the side orifice of the stimulus-delivery tubing. The test stimulus was applied to a disc of Whatman #1 filter paper inside the Pasteur pipette and was discharged through a 0.3-sec pulse of air (600 ml/min) Receptor potentials of the antennae in response to test stimuli were recorded with a Syntech IDAC probe, amplifier and interfaced board, and were analyzed with EAG Syntech Software Version 2.4 (1996) Inhibition (%) was calculated as: % inhibition=(Dd−Ds)/Dd×100 (eq. 1)
# Where Dd is the depolarization observed with pure disparlure (corrected for clean air background) and Ds is the depolarization with disparlure+sample. See FIG. 4 for a representative EAG inhibition assay trace.
# [2] = tested on: male gypsy moth antenna response to pheromone (+)-1; assay: EAG short-term (STI) and long-term (LTI) inhibition of pheromone signaling (Example 5); conditions: for inhibition at 0.001 mg / inhibition at 0.01 mg / inhibition at 0.1 mg / inhibition at 100 µg, 0.1 mg: Lymantria dispar, mean ± S.E.; for inhibition at 0.001 mg: mixed plume (+)-1 100 ng + compound 1 μg; for inhibition at 0.001 mg / inhibition at 0.01 mg / inhibition at 0.1 mg: negative = enhancement, read-out: Activity (%): short-term inhibition (STI); for inhibition at 0.01 mg: mixed plume (+)-1 100 ng + compound 10 μg; for inhibition at 0.1 mg: mixed plume (+)-1 100 ng + compound 100 μg (puff v); for inhibition at 100 µg, 0.1 mg: pure (+)-1 100 ng plume following mixed plume with 100 μg compound, read-out: Activity (%): long-term inhibition (LTI)
# Description: The puffs are numbered i-vi and were: i=air, ii=pure pheromone (+)-disparlure, (+)-1, (100 ng), iii-v=disparlure mixed with the test compound, the latter at three different doses, vi=pure (+)-1. Depolarizations from the resting potential are labeled d; hyperpolarizations seen during the recovery phase after a puff are labeled r. Subscripts refer to the puff number. FIG. 5A. Typical trace for compound 3c{2,3}. FIG. 5B. Typical trace for compound 3a{4,4}.
# For other compounds, EAG traces were recorded as follows: a fully dislodged antenna from a male gypsy moth was mounted on the end of a reference electrode (a glass capillary with a silver wire, filled with buffered saline: 5 mM NaH2PO4, 10 mM Na2SO4, 4.5 mM KHCO3, 18 mM MgCl2, 4 mM CaCl2, 6 mM KCl, the pH is adjusted to 6.8 using 5 mM Na2HPO4). The tip of the antenna was severed with microscissors and placed in the recording electrode, which was mounted on a micromanipulator. A constant stream of air, that had been purified (charcoal filter), was blown over the antenna at a rate of 300 mL/min. Test samples were delivered through a stimulus delivery tube with a side opening 2 cm from the distal opening. The proximal end of the delivery tube was connected to a controlled stimulus delivery apparatus (Stimulus controller CS-05 Syntech Research and Equipment, NL 1200BM, Hilversum, The Netherlands). The distal end of the delivery tube pointed at the antenna (1 cm from the antenna). The side opening was connected to a cartridge fashioned from a Pasteur pipette which contained a small filter paper (Whatman No. 1) with the stimulus. These pipette cartridges could be prepared a few days in advance and stored at −80° C. wrapped in Al foil and in sealable plastic bags. Sample cartridges were mounted once they had reached room temperature. The stimulus delivery apparatus delivered a second stream of air (a puff) through the Pasteur pipette at a velocity of 600 mL/min, at a specified point in time, for 0.3 s. Receptor potentials of the antennae in response to test stimuli were recorded with a Syntech IDAC probe, amplifier and interfaced board, and were analyzed with EAG Syntech Software Version 2.4 (1996). See FIG. 4 for a representative EAG trace. The EAG traces were evaluated as follows (see FIG. 5).
# The net depolarizations, d(net) (in mV), of puffs ii-vi,d(sample), (corrected for the depolarization with clean air, d(air)) d(net)=d(sample)−d(air) (Eq. 1)
# The percentage short-term inhibition for each compound (STI(compound)) of puffs iii-v, relative to the first pure pheromone puff (ii) STI(compound)=100×(d(net)(ii)−d(net)(compound))/d(net)(ii) (Eq. 2)
# c) the percentage long-term inhibition for each compound (LTI(compound)) of the pure pheromone puff that followed the last mixed puff (vi) relative to the first pure pheromone puff (ii) LTI(compound)=100×(d(net)(ii)−d(net)(vi))/d(net)(ii) (Eq. 3)
# The compounds we tested gave weak or no olfactory responses by themselves in electroantennogram (EAG) experiments. The EAG trace reflects the change in the potential across the antenna when an air puff with an odorant is passed over the antenna. To understand the agonistic or antagonistic effect of the compounds on pheromone responses by male moth antennae, four types of EAG experiment were conducted. First, the response of the antenna elicited by a stimulus of pure (+)-1 was compared to the responses elicited by blends of (+)-1 with the test compound (FIG. 5). […] This effect was termed short-term inhibition (STI). […] Second, the time decay and dose responses for LTI activities were studied. Third, the strongest inhibitors were tested for their ability to cause LTI by themselves.
# This experiment explored the agonistic or antagonistic activity of the synthetic aromatic compounds (Scheme 1 and eugenol and alkyl eugenols) with the gypsy moth pheromone (+)-1. […]
# L. dispar PBP 1 = assay: Pheromone-binding protein (PBP) ligand binding assay, PBP1
# Description: (§1) A. The protein and ligand are incubated in buffer overnight. B. For half of the incubation mixture, the free ligand (L) is separated from the protein-bound ligand (P.L) by size-exclusion chromatography on P2 Gel (BioRad, exclusion limit 2000 Da). The protein elutes from the small column bed, with its ligand bound (see Examples and […] et al. 2000; Staddon and Everton 1980), while the free ligand is retained on the column ([…] et al. 2000). C. […] The extract from the filtrate (B) contains the protein-bound ligand and the extract from the incubation mixture (A) contains all the ligand (bound and free) present in the aqueous phase. The extracts are analyzed by GC-MS, to obtain values for total ligand in solution (L+P.L) and for protein-bound ligand (P.L). These can then be used to calculate % bound (Table 3). These assays were performed as described in FIG. 3 and as follows: L. dispar PBP 1 or PBP 2 was incubated with the test compound or mini-library. The PBP and the ligand(s) (L) were left to equilibrate (eq 2) overnight. The non-bound ligand was then separated from the protein-bound material (PBP.L) by size-exclusion chromatography. By determining the total ligand in solution at equilibrium (eq. 3) and the protein-bound ligand, it is possible to estimate the percentage of ligand bound to the protein at equilibrium (eq. 4). […] This binding assay has been validated extensively in previous studies ([…] et al. 2000). The components of each mini-library separated cleanly by GC, so it was possible to monitor binding of individual components. PBP+L⇄PBP·L (eq. 2) [L]tot=[L]+[PBP·L] (eq. 3) % bound=100×[PBP·L]/[L]tot (eq. 4) Results: The members of each mini-library separated cleanly by GC, therefore it was possible to monitor binding of individual members to PBP1 or PBP2, the two known PBPs in the gypsy moth, by extraction from the aqueous incubation mixture, followed by GC analysis of the extract (FIG. 3).
# L. dispar PBP 2 = assay: Pheromone-binding protein (PBP) ligand binding assay, PBP2
# Description: as §1
# [3] = member tested within library 3c{1, 1-5}
# [4] = member tested within library 3c{2, 1-5}
# [5] = member tested within library 3c{4, 1-5}
# [6] = member tested within library 3c{5, 1-5}
# [7] = tested as single compound, means ± S.E., 4 replicates
SMILES,GC-EAD activity (male gypsy moth antenna),inhibition at 0.001 mg [2] [%],inhibition at 0.01 mg [2] [%],inhibition at 0.1 mg [2] [%],"inhibition at 100 µg, 0.1 mg [2] [%]",PBP1 (% bound) (L. dispar PBP 1; [5]) [%],also measured
"CCCOc1ccc(O)cc1 [2c{3}, 4-Propoxy phenol]",None,7 ± 31,29 ± 34,38 ± 12,-8 ± 7,,inhibition at 0.001 mg [1]: 17 ± 14%; inhibition at 0.01 mg [1]: 43 ± 14%; inhibition at 0.1 mg [1]: 35 ± 12%
"CC(C)CCOc1ccc(O)cc1 [2c{5}, 4-(3-Methyl-butyloxy) phenol]",None,47 ± 14,77 ± 7,49 ± 7,2 ± 4,,inhibition at 0.001 mg [1]: 38 ± 17%; inhibition at 0.01 mg [1]: 38 ± 27%; inhibition at 0.1 mg [1]: 19 ± 20%; short-term effect on antennal pheromone response (in words) [2]: antagonistic
"CCOc1ccc(OC)cc1 [3c{1,2}, 1-ethoxy-4-methoxy benzene]",++ sharp,,,,,,PBP1 (% bound) (L. dispar PBP 1; [3]): 15 ± 0.4%; PBP1 (% bound) (L. dispar PBP 1; [4]): 30 ± 0.2%; PBP2 (% bound) (L. dispar PBP 2; [3]): 12 ± 1.5%; PBP2 (% bound) (L. dispar PBP 2; [4]): 40 ± 0.1%
"CCCCOc1ccc(OC)cc1 [3c{1,4}, 1-butoxy-4-methoxy benzene]",None,,,,,20 ± 0.4,
"COc1ccc(OCCC(C)C)cc1 [3c{1,5}, 1-methoxy-4-(3-methyl-butyloxy) benzene]",None,,,,,,PBP1 (% bound) (L. dispar PBP 1; [3]): 1 ± 0.7%; PBP1 (% bound) (L. dispar PBP 1; [6]): 7 ± 0.1%; PBP2 (% bound) (L. dispar PBP 2; [3]): 2 ± 2.5%; PBP2 (% bound) (L. dispar PBP 2; [6]): 5 ± 0.1%
"CCCCOc1ccc(OCC)cc1 [3c{2,4}, 1-butoxy-4-ethoxy benzene]",None,,,,,10 ± 0.4,
"CCOc1ccc(OCCC(C)C)cc1 [3c{2,5}, 1-ethoxy-4-(3-methyl-butyloxy) benzene]",None,,,,,,PBP1 (% bound) (L. dispar PBP 1; [4]): 4 ± 0.2%; PBP1 (% bound) (L. dispar PBP 1; [6]): 2 ± 0.1%; PBP2 (% bound) (L. dispar PBP 2; [4]): 14 ± 0.2%; PBP2 (% bound) (L. dispar PBP 2; [6]): 3 ± 0.03%
"CCCCOc1ccc(OCCC)cc1 [3c{3,4}, 1-butoxy-4-propoxy benzene]",None,-11 ± 18,-90 ± 23,-180 ± 26,22 ± 12,4 ± 0.3,
"CCCOc1ccc(OCCC(C)C)cc1 [3c{3,5}, 1-(3-methyl-butyloxy)-4-propoxy benzene]",None,10 ± 11,-120 ± 20,-145 ± 35,4 ± 7,,"PBP1 (% bound) (L. dispar PBP 1; member tested within library 3c{3, 1-5}): 1 ± 0.2%; PBP1 (% bound) (L. dispar PBP 1; [6]): 3 ± 0.1%; PBP2 (% bound) (L. dispar PBP 2; [6]): 2 ± 0.02%"
"CCCCOc1ccc(OCCCC)cc1 [3c{4,4}, 1,4-Dibutoxy benzene]",,-107 ± 41,-90 ± 57,,7 ± 14,,PBP1 (% bound) (L. dispar PBP 1; [7]): 4 ± 0.1%; PBP2 (% bound) (L. dispar PBP 2; [7]): 8 ± 0.3%
"CCCCOc1ccc(OCCC(C)C)cc1 [3c{4,5}, 1-butoxy-4-(3-methyl-butyloxy) benzene]",None,,,,,4 ± 0.4,
